Experimental data published in PMC12382614, “(Oxidopyridyl)Porphyrins of Different Lipophilicity: Photophysical Properties, ROS Production and Phototoxicity on Melanoma Cells Under CoCl2-Induced Hypoxia” (Antioxidants, 2025).
Values joined by “and” are separate entries in the source; they are usually repeats but may differ in a detail not shown here. Equal entries are not always repeated. Where two headings read alike, the source gives them in different places.

Assays:
MeWo cells = test: Intracellular localisation by fluorescence microscopy with DIOC6(3); type: cell-based, human; conditions: 5 µM in medium, 6 h
Procedure: In the localisation tests, the cells were incubated with porphyrins and DIO6(3), a marker for mitochondria and endoplasmic reticulum (ER), which was used to investigate the colocalisation of porphyrins with the mentioned organelles. All images were analysed using the ImageJ program, while Pearson’s correlation coefficient was calculated using the CellSense program, fluorescence microscope software produced by Olympus.
To determine any potential preference for the ER and mitochondria, the localisation of (oxidopyridyl)porphyrins substituted with an alkyl chain of 9, 13 and 17 C atoms was observed by fluorescence microscopy incubation with 3,3′-dihexyloxacarbocyanine iodide (DIOC6(3)), a marker that is commonly used to target vesicle membranes, mitochondria and ER [39].

[1] = Fluorescence spectra and fluorescence quantum yield in MeOH; type: physicochemical
Procedure: (§1) The absorption spectra of (oxidopyridyl)porphyrins were recorded in HPLC grade MeOH on a Cary UV 60 (Agilent Technologies, Santa Clara, CA, USA), in a wavelength range of 300–700 nm. The fluorescence spectra in HPLC grade MeOH were recorded on a Cary Eclipse (Agilent Technologies) in a wavelength range of 500–800 nm after excitation at the Soret band wavelength (λ ~ 420 nm). The slits of the spectrometer were set to a bandpass of 5 nm for the excitation and 5 nm for the emission. To calculate the fluorescence quantum yields, the measurements were conducted on an FS5 Edinburgh Instruments spectrometer. Prior to taking the measurements, the solutions were purged with high-purity N2 for at least 15 min. The absorbance of the solutions was set to A < 0.1 at 405 nm and 550 nm, which settings were used for the excitation process. Emission was recorded from 550 to 800 nm, with slits set to the bandpass corresponding to 2 nm for the excitation, and 3 nm for the emission. Fluorescence quantum yield (ΦFL) was calculated in comparison to the tetraphenylporphyrin (TPP; ΦFL = 0.11 [23]) as a standard, according to Equation (S1) and following an equation previously described elsewhere.

[2] = system: HDF, MeWo and A375 cell lines; test: (Photo)cytotoxicity MTT assay, statements made for all cell lines; type: cell-based, human; conditions: Homo sapiens, light or radiation study; irradiation 643 nm, with or without CoCl2; read-out: IC50 in all the tested cells
Procedure: (§2) For (photo)cytotoxicity assays, stock solutions of porphyrins were prepared in DMSO and dissolved in DMEM to the final concentrations. The porphyrin incubation time was 6h. Irradiation of the cells was with red light (λ = 643 nm) for 30 min (light dose, 3.6 J/cm^2). Nonirradiated cells were used to test the dark toxicity. All measurements were performed in three individual experiments, and the results are shown as the proliferation (%) of the cells and were calculated as IC50 values.
(§3) The cytotoxicity of (oxidopyridyl)porphyrins was assessed by an MTT assay on the HDF, MeWo and A375 cell lines after 6 h of incubation with porphyrins, without irradiation, or after 30 min of irradiation with red light (λ = 643 nm), and under conditions of normoxia or hypoxia. To induce hypoxia, 100 µM of CoCl2 was added at least two hours before the porphyrins. […] Oxygen is also one of the substrates for the activity of prolyl hydroxylases; therefore, in both cases, the result is the blockage of hydroxylation of HIF-1α and, consequently, its increase and stabilisation, which, in the case of CoCl2-induced hypoxia, can be maintained for several hours.

A375 = test: Photocytotoxicity, MTT assay; type: cell-based, human; conditions: red light 643 nm 30 min; for IC50: Homo sapiens, A-375, light or radiation study, 6 h incubation
Procedure: as §2, §3

HDF = test: Photocytotoxicity, MTT assay; type: cell-based, human; conditions: for IC50: Homo sapiens, HDF, light or radiation study, 6 h incubation, red light 643 nm 30 min
Procedure: as §2, §3

MeWo = test: Photocytotoxicity, MTT assay; type: cell-based, human; conditions: red light 643 nm 30 min; for IC50: Homo sapiens, MeWo, light or radiation study, 6 h incubation
Procedure: as §2, §3

[3] = UV-Vis absorption spectra in MeOH; type: physicochemical
Procedure: as §1

[4] = Fluorescence decay by time-correlated single-photon counting (TC-SPC); type: physicochemical; conditions: MeOH, N2, λex 405 nm
Procedure: Time-correlated single-photon counting (TC-SPC) was used to obtain information about fluorescence decays. All measurements were performed on an FS5 Edinburgh Instruments device with a pulsed laser at 405 nm wavelength, which was used for the excitation process (pulse duration 60 ps). Fluorescence signals were monitored at 660 nm over 1023 channels, with a time increment of ≈49 ps/channel. Porphyrins were dissolved in MeOH (HPLC grade), with the absorbance adjusted to 0.1 a.u. at the excitation wavelength, and the solution was degassed with N2 for 15 min before the measurements were taken. All the decays were collected until they reached 3000 counts in the peak channel. A scattering solution, a silica gel suspension in H2O, was used to obtain the instrument response function (IRF). The histograms were analysed using a nonlinear least-squares deconvolution method via the software implemented with the instrument.

## CCCCCCCCCCCCCCCCCC(=O)Nc1ccc(-c2c3nc(c(-c4ccc[n+]([O-])c4)c4ccc([nH]4)c(-c4ccc[n+]([O-])c4)c4nc(c(-c5ccc[n+]([O-])c5)c5ccc2[nH]5)C=C4)C=C3)cc1 [TOPyP3-C17H35, 5-(4-Octadecanamidophenyl)-10,15,20-tris(1-oxido-3-pyridyl)porphyrin]
MeWo cells
  solubility (porphyrin not internalised, aggregates outside the cells): low solubility
[1]
  Stokes shift: 2 nm
[1]; N2-purged, TPP as reference
  ΦFL (fluorescence quantum yield): 0.047 ± 0.002
[1]; excitation at Soret band
  λFL Q(0,0): 648 nm
  λFL Q(0,1): 713 nm
[2]
  IC50: ≤ 1000 nM
A375; 3.6 J/cm^2, 100 μM CoCl2 at least 2 h before porphyrin, read-out: IC50 A375 CoCl2
  IC50: 940 ± 150 nM
A375; 3.6 J/cm^2, normoxia, read-out: IC50 A375 No CoCl2
  IC50: 770 ± 80 nM
A375; CoCl2-induced hypoxia
  SI (IC50 (HDF) / IC50 (melanoma cells)) A375 100 µM CoCl2: 1.2
A375; normoxia
  SI (IC50 (HDF) / IC50 (melanoma cells)) A375 No CoCl2: 1.7
HDF; 1 µM, irradiation 643 nm, normoxia
  reduction in the proliferation of cells: ~ 40%
HDF; 3.6 J/cm^2, 100 μM CoCl2 at least 2 h before porphyrin, read-out: IC50 HDF CoCl2
  IC50: 1090 ± 290 nM
HDF; 3.6 J/cm^2, normoxia, read-out: IC50 HDF No CoCl2
  IC50: 1310 ± 570 nM
MeWo; 3.6 J/cm^2, 100 μM CoCl2 at least 2 h before porphyrin, read-out: IC50 MeWo CoCl2
  IC50: 680 ± 190 nM
MeWo; 3.6 J/cm^2, normoxia, read-out: IC50 MeWo No CoCl2
  IC50: 660 ± 140 nM
MeWo; CoCl2-induced hypoxia
  SI (IC50 (HDF) / IC50 (melanoma cells)) MeWo 100 µM CoCl2: 1.6
MeWo; normoxia
  SI (IC50 (HDF) / IC50 (melanoma cells)) MeWo No CoCl2: 2.0
[3]
  ε Qx (0-0): 1600 M⁻¹ cm⁻¹
  ε Qx (1-0): 4500 M⁻¹ cm⁻¹
  ε Qy (0-0): 4300 M⁻¹ cm⁻¹
  ε Qy (1-0): 15000 M⁻¹ cm⁻¹
  ε Soret (B): 275400 M⁻¹ cm⁻¹
  λabs Qx (0-0): 646 nm
  λabs Qx (1-0): 587 nm
  λabs Qy (0-0): 547 nm
  λabs Qy (1-0): 512 nm
  λabs Soret (B): 417 nm
[4]
  contribution of τ1 (% of the decay): 1%
  contribution of τ2 (% of the decay): 99%
  τFL, longer decay time τ2: 7.82 ± 0.02 ns and 7.82 ns
  τFL, short decay time τ1: 0.57 ± 0.08 ns and 0.57 ns
